{
  "source": "ChEMBL document CHEMBL4118132",
  "about": "“Novel 5-methyl-2-phenylphenanthridium derivatives as FtsZ-targeting antibacterial agents from structural simplification of natural product sanguinarine” (2018)",
  "key": {"[1]": {"test_system": "Staphylococcus aureus", "test": "Antibacterial activity against penicillin-susceptible Staphylococcus aureus ATCC 25923 after 24 hrs by broth microdilution method", "type": "functional", "details": "ATCC 25923, 24 h"}, "[2]": {"test_system": "Staphylococcus aureus", "test": "Potency index, ratio of ciprofloxacin MIC to test compound MIC for penicillin-resistant Staphylococcus aureus clinical isolate", "type": "functional"}, "[3]": {"test_system": "Streptococcus pyogenes", "test": "Antibacterial activity against penicillin-susceptible Streptococcus pyogenes after 24 hrs by broth microdilution method", "type": "functional"}, "[4]": {"test_system": "Streptococcus pyogenes", "test": "Antibacterial activity against penicillin-resistant Streptococcus pyogenes after 24 hrs by broth microdilution method", "type": "functional"}, "[5]": {"test_system": "Bacillus pumilus", "test": "Antibacterial activity against penicillin-susceptible Bacillus pumilus ATCC 63202 after 24 hrs by broth microdilution method", "type": "functional", "details": "ATCC 63202, 24 h"}, "[6]": {"test_system": "Pseudomonas aeruginosa", "test": "Antibacterial activity against penicillin-susceptible Pseudomonas aeruginosa ATCC 27853 after 24 hrs by broth microdilution method", "type": "functional", "details": "ATCC 27853, 24 h"}, "[7]": {"test_system": "Staphylococcus aureus", "test": "Potency index, ratio of oxacillin sodium MIC to test compound MIC for penicillin-susceptible Staphylococcus aureus ATCC 25923", "type": "functional"}, "[8]": {"test_system": "Staphylococcus aureus", "test": "Potency index, ratio of ciprofloxacin MIC to test compound MIC for methicillin-resistant Staphylococcus aureus ATCC 43300", "type": "functional"}, "[9]": {"test_system": "Staphylococcus aureus", "test": "Potency index, ratio of oxacillin sodium MIC to test compound MIC for methicillin-resistant Staphylococcus aureus ATCC 43300", "type": "functional"}, "[10]": {"test_system": "Staphylococcus epidermidis", "test": "Potency index, ratio of oxacillin sodium MIC to test compound MIC for penicillin-resistant Staphylococcus epidermidis clinical isolate", "type": "functional"}, "[11]": {"test_system": "Streptococcus pyogenes", "test": "Potency index, ratio of ciprofloxacin MIC to test compound MIC for penicillin-susceptible Streptococcus pyogenes", "type": "functional"}, "[12]": {"test_system": "Streptococcus pyogenes", "test": "Potency index, ratio of oxacillin sodium MIC to test compound MIC for penicillin-susceptible Streptococcus pyogenes", "type": "functional"}, "[13]": {"test_system": "Bacillus subtilis", "test": "Potency index, ratio of ciprofloxacin MIC to test compound MIC for penicillin-susceptible Bacillus subtilis ATCC 9372", "type": "functional"}, "[14]": {"test_system": "Bacillus subtilis", "test": "Potency index, ratio of oxacillin sodium MIC to test compound MIC for penicillin-susceptible Bacillus subtilis ATCC 9372", "type": "functional"}, "[15]": {"test_system": "Streptococcus pyogenes", "test": "Potency index, ratio of ciprofloxacin MIC to test compound MIC for penicillin-resistant Streptococcus pyogenes", "type": "functional"}, "[16]": {"test_system": "Streptococcus pyogenes", "test": "Potency index, ratio of oxacillin sodium MIC to test compound MIC for penicillin-resistant Streptococcus pyogenes", "type": "functional"}, "[17]": {"test_system": "Staphylococcus aureus", "test": "Bactericidal activity against penicillin-susceptible Staphylococcus aureus ATCC 25923 assessed as bacterial levels at 32 ug/ml after 1 hr by time-kill assay (reference value: 6.13 to 6.14 log10CFU/ml)", "type": "functional"}, "[18]": {"test_system": "Staphylococcus aureus", "test": "Bactericidal activity against penicillin-susceptible Staphylococcus aureus ATCC 25923 assessed as bacterial levels at 16 ug/ml after 1 hr by time-kill assay (reference value: 6.13 to 6.14 log10CFU/ml)", "type": "functional"}, "[19]": {"test_system": "Staphylococcus aureus", "test": "Bactericidal activity against penicillin-susceptible Staphylococcus aureus ATCC 25923 assessed as bacterial levels at 8 ug/ml after 1 hr by time-kill assay (reference value: 6.13 to 6.14 log10CFU/ml)", "type": "functional"}, "[20]": {"test_system": "Staphylococcus aureus", "test": "Bactericidal activity against penicillin-susceptible Staphylococcus aureus ATCC 25923 assessed as bacterial levels at 32 ug/ml after 2 hrs by time-kill assay (reference value: 6.13 to 6.17 log10CFU/ml)", "type": "functional"}, "[21]": {"test_system": "Staphylococcus aureus", "test": "Bactericidal activity against penicillin-susceptible Staphylococcus aureus ATCC 25923 assessed as bacterial levels at 32 ug/ml after 4 hrs by time-kill assay (reference value: 6.13 to 6.71 log10CFU/ml)", "type": "functional"}, "[22]": {"test_system": "Staphylococcus aureus", "test": "Bactericidal activity against penicillin-susceptible Staphylococcus aureus ATCC 25923 assessed as bacterial levels at 16 ug/ml after 4 hrs by time-kill assay (reference value: 6.13 to 6.71 log10CFU/ml)", "type": "functional"}, "[23]": {"test_system": "Staphylococcus aureus", "test": "Bactericidal activity against penicillin-susceptible Staphylococcus aureus ATCC 25923 assessed as bacterial levels at 8 ug/ml after 6 hrs by time-kill assay (reference value: 6.13 to 7.54 log10CFU/ml)", "type": "functional"}, "[24]": {"test_system": "Staphylococcus aureus", "test": "Bactericidal activity against penicillin-susceptible Staphylococcus aureus ATCC 25923 assessed as bacterial levels at 32 ug/ml after 12 hrs by time-kill assay (reference value: 6.13 to 8.01 log10CFU/ml)", "type": "functional"}, "[25]": {"test_system": "Staphylococcus aureus", "test": "Bactericidal activity against penicillin-susceptible Staphylococcus aureus ATCC 25923 assessed as bacterial levels at 16 ug/ml after 12 hrs by time-kill assay (reference value: 6.13 to 8.01 log10CFU/ml)", "type": "functional"}, "[26]": {"test_system": "Staphylococcus aureus", "test": "Bactericidal activity against penicillin-susceptible Staphylococcus aureus ATCC 25923 assessed as bacterial levels at 8 ug/ml after 12 hrs by time-kill assay (reference value: 6.13 to 8.01 log10CFU/ml)", "type": "functional"}, "[27]": {"test_system": "Staphylococcus aureus", "test": "Bactericidal activity against penicillin-susceptible Staphylococcus aureus ATCC 25923 assessed as bacterial levels at 32 ug/ml after 24 hrs by time-kill assay (reference value: 6.13 to 8.34 log10CFU/ml)", "type": "functional"}, "[28]": {"molecular_target": "T1, Cell division protein FtsZ (Bacillus subtilis) (UniProt A5Z1V5)", "T1 sequence (whole entry)": "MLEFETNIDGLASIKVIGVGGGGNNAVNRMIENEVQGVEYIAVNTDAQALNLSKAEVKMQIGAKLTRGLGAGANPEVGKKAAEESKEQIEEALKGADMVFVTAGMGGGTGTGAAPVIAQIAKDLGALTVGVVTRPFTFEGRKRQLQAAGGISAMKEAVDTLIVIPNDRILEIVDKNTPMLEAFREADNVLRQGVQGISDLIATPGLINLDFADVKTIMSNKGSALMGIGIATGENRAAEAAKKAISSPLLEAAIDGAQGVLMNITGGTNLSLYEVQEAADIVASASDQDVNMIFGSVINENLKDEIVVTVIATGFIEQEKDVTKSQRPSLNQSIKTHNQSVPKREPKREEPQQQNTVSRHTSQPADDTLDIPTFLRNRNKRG", "test": "Inhibition of FtsZ in penicillin-susceptible Bacillus subtilis ATCC 9372 assessed as increase in length of bacteria at 0.125 ug/ml after 5 hrs by phase-contrast light microscopic method"}, "[29]": {"molecular_target": "T2, Cell division protein FtsZ (Staphylococcus aureus) (UniProt P0A031)", "T2 sequence (whole entry)": "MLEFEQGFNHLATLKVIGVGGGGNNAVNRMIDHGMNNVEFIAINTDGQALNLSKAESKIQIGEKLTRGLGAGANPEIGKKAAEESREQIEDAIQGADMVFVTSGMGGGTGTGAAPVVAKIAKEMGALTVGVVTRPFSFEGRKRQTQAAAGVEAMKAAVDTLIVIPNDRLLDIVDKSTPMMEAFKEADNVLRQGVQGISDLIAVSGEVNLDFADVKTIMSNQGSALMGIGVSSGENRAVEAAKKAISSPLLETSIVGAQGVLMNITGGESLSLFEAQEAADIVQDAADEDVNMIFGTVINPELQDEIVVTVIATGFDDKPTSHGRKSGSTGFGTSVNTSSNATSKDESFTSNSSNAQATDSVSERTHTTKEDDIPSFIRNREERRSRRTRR", "test": "Inhibition of FtsZ in penicillin-susceptible Staphylococcus aureus ATCC 25923 assessed as increase in length of bacteria at 0.125 ug/ml after 5 hrs by phase-contrast light microscopic method"}},
  "note": "Activity calls are given as the source filed them. No cut-off for these calls is given here.",
  "data": [
    {"smiles": "Cc1cc(-c2ccc(C(F)(F)F)cc2)cc2c3ccccc3c[n+](C)c12.[Cl-]", "values": [
      {"measurement": "MIC", "setting": "[1]", "result": 0.06, "unit": "µg/mL"},
      {"measurement": "Ratio", "setting": "[2]", "result": 64},
      {"measurement": "MIC", "setting": "[3]", "result": 1, "unit": "µg/mL"},
      {"measurement": "MIC", "setting": "[4]", "result": 2, "unit": "µg/mL"},
      {"measurement": "MIC", "setting": "[5]", "result": 0.06, "unit": "µg/mL"},
      {"measurement": "MIC", "setting": "[6]", "result": "> 64", "unit": "µg/mL"},
      {"measurement": "Ratio", "setting": "[7]", "result": 67},
      {"measurement": "Ratio", "setting": "[8]", "result": 64},
      {"measurement": "Ratio", "setting": "[9]", "result": 256},
      {"measurement": "Ratio", "setting": "[10]", "result": 512},
      {"measurement": "Ratio", "setting": "[11]", "result": 8},
      {"measurement": "Ratio", "setting": "[12]", "result": 1},
      {"measurement": "Ratio", "setting": "[13]", "result": 33},
      {"measurement": "Ratio", "setting": "[14]", "result": 67},
      {"measurement": "Ratio", "setting": "[15]", "result": 32},
      {"measurement": "Ratio", "setting": "[16]", "result": 32},
      {"measurement": "Activity", "setting": "[17]", "result": 5.57, "unit": "log10CFU/ml"},
      {"measurement": "Activity", "setting": "[18]", "result": 5.89, "unit": "log10CFU/ml"},
      {"measurement": "Activity", "setting": "[19]", "result": 6.05, "unit": "log10CFU/ml"},
      {"measurement": "Activity", "setting": "[20]", "result": 5.18, "unit": "log10CFU/ml"},
      {"measurement": "Activity", "setting": "[21]", "result": 4, "unit": "log10CFU/ml"},
      {"measurement": "Activity", "setting": "[22]", "result": 5.75, "unit": "log10CFU/ml"},
      {"measurement": "Activity", "setting": "[23]", "result": 6.07, "unit": "log10CFU/ml"},
      {"measurement": "Activity", "setting": "[24]", "result": 0, "unit": "log10CFU/ml"},
      {"measurement": "Activity", "setting": "[25]", "result": 4, "unit": "log10CFU/ml"},
      {"measurement": "Activity", "setting": "[26]", "result": 5.78, "unit": "log10CFU/ml"},
      {"measurement": "Activity", "setting": "[27]", "result": 0, "unit": "log10CFU/ml"},
      {"measurement": "inhibition", "setting": "[28]", "result": "Active"},
      {"measurement": "inhibition", "setting": "[29]", "result": "Active"}
    ]}
  ]
}
